Results taken from US4693996A, “Method of treating heart failure and medicaments therefor” (Warner-Lambert Company, priority 1985, dated 1987).
pIC50: −log10 of the molar value.

How the values were obtained:
A1 adenosine receptor = molecular target: T1, A1 adenosine receptor (Rattus norvegicus, UniProt P25099); assay: A1 adenosine receptor binding, isolated rat brain membranes
T1 construct: isolated rat brain membranes; from tissue; host or cells: rat brain membranes
T1 sequence (P25099 1-326): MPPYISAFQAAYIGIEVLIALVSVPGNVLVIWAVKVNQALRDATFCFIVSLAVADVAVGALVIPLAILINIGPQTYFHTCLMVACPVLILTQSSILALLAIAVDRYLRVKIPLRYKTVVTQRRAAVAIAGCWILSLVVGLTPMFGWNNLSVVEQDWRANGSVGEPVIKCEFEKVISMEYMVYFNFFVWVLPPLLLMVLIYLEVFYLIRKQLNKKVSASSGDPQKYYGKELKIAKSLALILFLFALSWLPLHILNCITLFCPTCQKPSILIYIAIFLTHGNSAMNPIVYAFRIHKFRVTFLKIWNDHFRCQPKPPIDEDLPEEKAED

dopaminergic receptors = assay: dopaminergic receptor binding
muscarinic receptors = assay: muscarinic receptor binding
α1-adrenergic receptors = assay: α1-adrenergic receptor binding
α2-adrenergic receptors = assay: α2-adrenergic receptor binding
β1-adrenergic receptors = assay: β1-adrenergic receptor binding
β2-adrenergic receptors = assay: β2-adrenergic receptor binding
serotonergic receptors = assay: serotonergic receptor binding
[1] = tested on: α-aminobuteric acid receptors; assay: α-aminobuteric acid receptor binding
[2] = tested on: isolated-Langendorff perfused rat hearts; assay: isolated-Langendorff perfused rat hearts; conditions: 10^-8 -3×10^-6 M
[3] = tested on: anesthetized-vagotomized normotensive rats; assay: hemodynamics in anesthetized-vagotomized normotensive rats; type: in vivo, rat; conditions: IV 3 to 300 mg/kg
Procedure: In this procedure the (R)-N-(2,3-dihydro-1H-inden-1-yl)adenosine (B) is administered intravenously (IV) at 3 to 300 mg/kg in anesthetized-vagotomized normotensive rats.

[4] = tested on: anesthetized normotensive dogs; assay: hemodynamics in anesthetized normotensive dogs; type: in vivo, dog; conditions: IV
Procedure: Such administration is by a method essentially described as follows:
Mongrel dogs of either sex are anesthetized with sodium pentobarbital (30 mg/kg IV) and mechanically ventilated with room air. The left and right femoral veins are cannulated for injection of test compound and maintenance anesthesia (3.5 mg/kg/hr), respectively. Cardiac output is measured by a thermodilution catheter positioned in the pulmonary artery. Left ventricular contractility (dP/dt) is measured by a Millar Mikro-Tip catheter pressure transducer positioned in the left ventricular cavity via the left carotid artery, heart rate, and lead II electrocardiogram are recorded continuously. Each animal is allowed 30 minutes to stabilize and hemodynamic control pressures, cardiac output, and electrocardiographic measurements are recorded. Compounds are dissolved in saline if possible and pH adjusted. If another solvent is required, vehicle control experiments are performed. Test compounds are administered as rising bolus doses usually starting at 0.1 midtherapeutic and increasing in half log doses to 30 X midtherapeutic. All cardiovascular measurements are repeated after each dose.
Agent induced effects on any of the cardiovascular measurements are recorded.

[5] = tested on: anesthetized dog with propranolol-induced myocardial depression; assay: propranolol-induced acute heart failure in the anesthetized dog; type: in vivo; conditions: B 6 μg/kg/min infusion, A 0.01 to 3.0 mg/kg IV bolus
Procedure: CONT indicates the control before propanolol induced cardiac depression, DEP indicates a stable propanolol depression, and TD indicates administration of the initial test drug, either saline or (R)-N-(2,3-dihydro-1H-inden-1-yl)adenosine (B).
Adult mongrel dogs of either sex are anesthetized with sodium pentobarbital (32 mg/kg) IV, trachea intubated, and ventilated artificially. Anesthesia is maintained by a continuous infusion of sodium pentobarbital (3.0 mg/kg/hr) through a femoral vein cannula. Three additional venous cannulae are used for (1) propranolol infusion, (2) (R)-N-(2,3-dihydro-1H-inden-1-yl)adenosine or saline infusion and (3) bolus injections of either 4,5-dihydro-6-[4-(1H-imidazol-1-yl)phenyl]-3(2H)pyridazinone, hydrochloride salt or saline. Systemic arterial blood pressure, left ventricular contractility (dP/dt), and heart rate are recorded continuously. Cardiac output, measured by thermodilution, is recorded before myocardial depression, when stable myocardial depression is achieved (approximately 30 minutes), and ten minutes following each bolus dose. Following surgical preparation, 30 minutes are allowed for hemodynamic stabilization prior to induction of the myocardial depression. […]

[6] = combination compared with A alone at comparable doses

- pIC50 (A1 adenosine receptor): 7.52
- binding to dopaminergic receptors (dopaminergic receptors): does not significantly bind
- binding to muscarinic receptors (muscarinic receptors): does not significantly bind
- binding to α1-adrenergic receptors (α1-adrenergic receptors): does not significantly bind
- binding to α2-adrenergic receptors (α2-adrenergic receptors): does not significantly bind
- binding to β1-adrenergic receptors (β1-adrenergic receptors): does not significantly bind
- binding to β2-adrenergic receptors (β2-adrenergic receptors): does not significantly bind
- binding to serotonergic receptors (serotonergic receptors): does not significantly bind
- binding to α-aminobuteric acid receptors [1]: does not significantly bind
Compound: OC[C@H]1O[C@@H](n2cnc3c(N[C@@H]4CCc5ccccc54)ncnc32)[C@H](O)[C@@H]1O [B, (R)-N-(2,3-dihydro-1H-inden-1-yl)adenosine]
- heart rate [2]: decreases
- coronary flow ([2]; isolated perfused rat heart): Concentration-dependent increases
- heart rate [3]: dose-related decreases
- mean arterial blood pressure [3]: dose-related decreases
- calculated total peripheral resistance [4]: dose-related decreases
- heart rate [4]: dose-related decreases
- mean arterial blood pressure [4]: dose-related decreases
- pressure volume relationship of the left ventricle (LVEDP vs stroke volume) [5]: did not increase dP/dt, cardiac output, or affect the pressure volume relationship
- cardiac output [5, 6]: did not increase
- myocardial contractility (dP/dt of left ventricular pressure) [5, 6]: did not increase
